Like-named read-outs stand apart in the source and are kept apart here.
Legend:
Experiment in all cases: biochemical
Set-up in all cases: KINOMEscan scanMAX competition binding, DNA-tagged kinases, qPCR read-out, percent control at 300 nM
[1] = biological target: GRK4 (Homo sapiens, UniProt P32298)
[2] = biological target: T1, GAK (Homo sapiens, UniProt O14976)
T1 sequence (O14976 1-1311): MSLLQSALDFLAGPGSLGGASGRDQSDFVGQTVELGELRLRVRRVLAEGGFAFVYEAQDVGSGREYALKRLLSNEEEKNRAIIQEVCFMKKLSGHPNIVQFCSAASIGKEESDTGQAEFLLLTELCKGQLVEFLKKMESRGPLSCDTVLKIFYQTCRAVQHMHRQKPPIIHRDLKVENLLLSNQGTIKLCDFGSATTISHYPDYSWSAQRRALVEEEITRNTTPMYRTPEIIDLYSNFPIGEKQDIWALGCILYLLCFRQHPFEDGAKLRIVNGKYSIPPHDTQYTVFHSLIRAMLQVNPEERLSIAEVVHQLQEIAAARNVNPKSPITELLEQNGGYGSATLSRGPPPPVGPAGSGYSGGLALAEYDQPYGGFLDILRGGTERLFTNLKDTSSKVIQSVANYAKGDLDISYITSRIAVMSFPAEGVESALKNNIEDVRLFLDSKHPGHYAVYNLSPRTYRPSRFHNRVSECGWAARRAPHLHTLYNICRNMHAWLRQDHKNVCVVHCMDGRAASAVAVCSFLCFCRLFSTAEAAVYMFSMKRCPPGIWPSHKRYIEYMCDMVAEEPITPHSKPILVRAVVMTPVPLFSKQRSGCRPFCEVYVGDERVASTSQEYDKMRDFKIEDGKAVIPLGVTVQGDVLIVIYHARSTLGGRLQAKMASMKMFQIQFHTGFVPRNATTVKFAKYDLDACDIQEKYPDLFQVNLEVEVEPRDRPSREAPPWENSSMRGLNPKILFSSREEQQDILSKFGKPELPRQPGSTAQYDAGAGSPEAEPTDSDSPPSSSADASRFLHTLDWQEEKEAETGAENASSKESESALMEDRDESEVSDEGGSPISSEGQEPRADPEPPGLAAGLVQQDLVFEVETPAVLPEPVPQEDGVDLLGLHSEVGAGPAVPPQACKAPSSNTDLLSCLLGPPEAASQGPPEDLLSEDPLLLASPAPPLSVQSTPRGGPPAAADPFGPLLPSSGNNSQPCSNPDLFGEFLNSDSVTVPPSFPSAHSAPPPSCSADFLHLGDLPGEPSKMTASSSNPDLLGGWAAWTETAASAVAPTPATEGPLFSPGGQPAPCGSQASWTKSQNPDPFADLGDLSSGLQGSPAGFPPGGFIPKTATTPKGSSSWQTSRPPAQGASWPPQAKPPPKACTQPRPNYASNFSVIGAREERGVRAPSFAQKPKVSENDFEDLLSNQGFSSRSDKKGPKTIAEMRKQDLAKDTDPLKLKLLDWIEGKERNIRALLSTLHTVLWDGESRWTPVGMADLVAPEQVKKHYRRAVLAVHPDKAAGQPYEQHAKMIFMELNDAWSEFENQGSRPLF

[3] = biological target: FGFR2 (Homo sapiens, UniProt P21802)
[4] = biological target: BLK (Homo sapiens, UniProt P51451)
[5] = biological target: TNIK (Homo sapiens, UniProt Q9UKE5)
[6] = biological target: T2, MAP4K3 (Homo sapiens, UniProt Q8IVH8)
T2 sequence (Q8IVH8 1-894): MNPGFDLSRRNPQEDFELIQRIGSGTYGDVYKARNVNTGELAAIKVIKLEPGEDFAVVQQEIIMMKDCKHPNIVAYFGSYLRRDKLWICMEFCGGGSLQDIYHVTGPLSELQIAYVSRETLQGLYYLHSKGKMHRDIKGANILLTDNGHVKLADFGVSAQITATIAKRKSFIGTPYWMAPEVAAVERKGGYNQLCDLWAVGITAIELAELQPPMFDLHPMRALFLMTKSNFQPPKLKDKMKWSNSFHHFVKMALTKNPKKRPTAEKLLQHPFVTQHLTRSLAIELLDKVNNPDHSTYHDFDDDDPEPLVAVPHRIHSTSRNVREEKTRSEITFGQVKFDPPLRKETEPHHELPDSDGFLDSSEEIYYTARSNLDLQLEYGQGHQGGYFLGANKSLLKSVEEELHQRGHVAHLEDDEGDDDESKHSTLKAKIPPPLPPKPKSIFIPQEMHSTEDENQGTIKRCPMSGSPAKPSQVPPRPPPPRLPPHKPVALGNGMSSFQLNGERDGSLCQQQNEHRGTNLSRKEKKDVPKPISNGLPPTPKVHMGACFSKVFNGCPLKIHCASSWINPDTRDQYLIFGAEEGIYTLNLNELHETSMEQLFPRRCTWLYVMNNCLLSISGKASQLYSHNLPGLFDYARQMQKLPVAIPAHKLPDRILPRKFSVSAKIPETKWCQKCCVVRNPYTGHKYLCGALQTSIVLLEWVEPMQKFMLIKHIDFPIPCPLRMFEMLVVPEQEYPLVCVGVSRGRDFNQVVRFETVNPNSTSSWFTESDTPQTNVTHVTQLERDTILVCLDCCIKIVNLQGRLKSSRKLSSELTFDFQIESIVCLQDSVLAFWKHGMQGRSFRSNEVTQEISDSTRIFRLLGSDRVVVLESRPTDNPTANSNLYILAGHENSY

[7] = biological target: PRKCQ (Homo sapiens, UniProt Q04759)
[8] = biological target: SBK1 (Homo sapiens, UniProt Q52WX2)
[9] = read-out: Percent control / Acalabrutinib
[10] = read-out: Percent control / Ibrutinib
[11] = read-out: Percent control / Tirabrutinib
[12] = read-out: Percent control / Zanubrutinib

TNIK, sequence (Q9UKE5 whole entry): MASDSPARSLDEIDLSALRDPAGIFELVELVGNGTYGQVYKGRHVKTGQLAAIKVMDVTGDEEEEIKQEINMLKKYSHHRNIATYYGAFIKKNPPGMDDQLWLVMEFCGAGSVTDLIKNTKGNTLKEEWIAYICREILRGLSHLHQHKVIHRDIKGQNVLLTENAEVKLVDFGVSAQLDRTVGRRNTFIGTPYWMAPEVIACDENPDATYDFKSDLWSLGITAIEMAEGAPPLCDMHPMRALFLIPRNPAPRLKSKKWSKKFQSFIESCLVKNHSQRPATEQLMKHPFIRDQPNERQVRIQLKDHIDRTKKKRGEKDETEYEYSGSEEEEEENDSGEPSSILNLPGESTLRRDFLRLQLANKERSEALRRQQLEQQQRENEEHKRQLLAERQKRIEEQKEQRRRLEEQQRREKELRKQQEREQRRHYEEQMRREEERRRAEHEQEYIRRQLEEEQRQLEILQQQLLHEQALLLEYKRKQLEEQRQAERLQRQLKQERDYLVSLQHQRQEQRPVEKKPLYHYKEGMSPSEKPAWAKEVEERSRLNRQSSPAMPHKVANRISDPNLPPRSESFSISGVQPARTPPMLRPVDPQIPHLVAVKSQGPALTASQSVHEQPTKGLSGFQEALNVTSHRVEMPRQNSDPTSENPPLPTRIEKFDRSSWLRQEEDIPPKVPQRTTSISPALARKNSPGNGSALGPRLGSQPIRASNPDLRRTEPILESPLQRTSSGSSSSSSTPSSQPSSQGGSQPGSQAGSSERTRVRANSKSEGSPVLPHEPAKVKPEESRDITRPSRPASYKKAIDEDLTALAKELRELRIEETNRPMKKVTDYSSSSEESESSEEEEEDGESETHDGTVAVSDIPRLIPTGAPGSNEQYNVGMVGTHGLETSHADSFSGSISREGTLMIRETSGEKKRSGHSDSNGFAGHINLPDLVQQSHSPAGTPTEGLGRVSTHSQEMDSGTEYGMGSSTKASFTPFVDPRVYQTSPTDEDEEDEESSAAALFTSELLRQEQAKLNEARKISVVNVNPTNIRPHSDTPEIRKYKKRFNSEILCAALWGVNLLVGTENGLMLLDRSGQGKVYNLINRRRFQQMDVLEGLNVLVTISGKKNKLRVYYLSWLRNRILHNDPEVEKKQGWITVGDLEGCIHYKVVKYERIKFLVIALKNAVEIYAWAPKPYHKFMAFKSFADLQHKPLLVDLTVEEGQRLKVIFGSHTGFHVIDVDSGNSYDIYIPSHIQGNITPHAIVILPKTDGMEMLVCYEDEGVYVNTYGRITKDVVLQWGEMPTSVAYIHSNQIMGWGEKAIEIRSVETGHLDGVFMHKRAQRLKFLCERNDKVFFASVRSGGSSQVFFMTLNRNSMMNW
SBK1, sequence (Q52WX2 whole entry): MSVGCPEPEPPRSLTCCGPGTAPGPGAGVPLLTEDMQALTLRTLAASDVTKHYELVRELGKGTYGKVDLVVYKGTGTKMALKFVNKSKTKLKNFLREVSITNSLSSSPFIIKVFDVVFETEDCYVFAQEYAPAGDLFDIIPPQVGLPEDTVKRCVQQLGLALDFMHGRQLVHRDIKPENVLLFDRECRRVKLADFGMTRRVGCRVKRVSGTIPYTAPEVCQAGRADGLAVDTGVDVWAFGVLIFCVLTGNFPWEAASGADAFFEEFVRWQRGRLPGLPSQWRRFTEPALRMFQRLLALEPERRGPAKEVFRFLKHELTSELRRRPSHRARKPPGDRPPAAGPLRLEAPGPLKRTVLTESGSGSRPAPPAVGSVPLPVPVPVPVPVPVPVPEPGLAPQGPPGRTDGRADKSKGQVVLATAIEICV
FGFR2, sequence (P21802 whole entry): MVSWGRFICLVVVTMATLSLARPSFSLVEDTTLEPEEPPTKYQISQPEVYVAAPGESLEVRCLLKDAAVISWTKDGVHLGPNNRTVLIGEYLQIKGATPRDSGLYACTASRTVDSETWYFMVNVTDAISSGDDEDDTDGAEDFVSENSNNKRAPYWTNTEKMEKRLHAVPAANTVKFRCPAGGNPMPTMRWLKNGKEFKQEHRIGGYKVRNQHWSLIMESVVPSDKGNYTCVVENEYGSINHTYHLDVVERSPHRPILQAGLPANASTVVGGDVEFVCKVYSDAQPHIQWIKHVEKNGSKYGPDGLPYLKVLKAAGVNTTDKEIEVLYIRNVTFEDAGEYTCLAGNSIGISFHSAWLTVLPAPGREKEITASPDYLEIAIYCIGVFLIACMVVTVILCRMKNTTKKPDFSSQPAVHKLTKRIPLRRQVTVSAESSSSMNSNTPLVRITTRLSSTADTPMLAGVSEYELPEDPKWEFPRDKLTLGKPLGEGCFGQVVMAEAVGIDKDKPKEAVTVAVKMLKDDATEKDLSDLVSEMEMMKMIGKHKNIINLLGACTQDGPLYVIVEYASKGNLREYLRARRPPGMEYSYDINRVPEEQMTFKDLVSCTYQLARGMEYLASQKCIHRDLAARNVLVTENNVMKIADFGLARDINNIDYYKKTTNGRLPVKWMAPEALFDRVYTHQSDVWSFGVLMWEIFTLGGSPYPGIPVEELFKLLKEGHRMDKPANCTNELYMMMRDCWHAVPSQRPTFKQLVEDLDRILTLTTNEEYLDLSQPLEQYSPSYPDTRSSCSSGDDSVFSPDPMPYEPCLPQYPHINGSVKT
BLK, sequence (P51451 whole entry): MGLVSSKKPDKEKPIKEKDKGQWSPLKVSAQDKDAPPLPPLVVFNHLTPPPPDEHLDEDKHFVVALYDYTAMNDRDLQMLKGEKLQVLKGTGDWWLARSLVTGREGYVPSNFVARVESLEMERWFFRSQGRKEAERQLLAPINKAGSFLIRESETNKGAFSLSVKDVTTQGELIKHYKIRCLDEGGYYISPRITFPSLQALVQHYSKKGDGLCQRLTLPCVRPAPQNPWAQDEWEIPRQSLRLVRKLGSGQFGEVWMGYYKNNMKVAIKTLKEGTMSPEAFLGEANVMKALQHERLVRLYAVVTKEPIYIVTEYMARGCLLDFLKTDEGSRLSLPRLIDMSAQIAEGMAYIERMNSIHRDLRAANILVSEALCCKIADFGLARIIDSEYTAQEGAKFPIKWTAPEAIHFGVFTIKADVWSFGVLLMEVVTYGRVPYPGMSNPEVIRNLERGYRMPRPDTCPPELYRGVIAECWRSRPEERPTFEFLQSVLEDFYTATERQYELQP
GRK4, sequence (P32298 whole entry): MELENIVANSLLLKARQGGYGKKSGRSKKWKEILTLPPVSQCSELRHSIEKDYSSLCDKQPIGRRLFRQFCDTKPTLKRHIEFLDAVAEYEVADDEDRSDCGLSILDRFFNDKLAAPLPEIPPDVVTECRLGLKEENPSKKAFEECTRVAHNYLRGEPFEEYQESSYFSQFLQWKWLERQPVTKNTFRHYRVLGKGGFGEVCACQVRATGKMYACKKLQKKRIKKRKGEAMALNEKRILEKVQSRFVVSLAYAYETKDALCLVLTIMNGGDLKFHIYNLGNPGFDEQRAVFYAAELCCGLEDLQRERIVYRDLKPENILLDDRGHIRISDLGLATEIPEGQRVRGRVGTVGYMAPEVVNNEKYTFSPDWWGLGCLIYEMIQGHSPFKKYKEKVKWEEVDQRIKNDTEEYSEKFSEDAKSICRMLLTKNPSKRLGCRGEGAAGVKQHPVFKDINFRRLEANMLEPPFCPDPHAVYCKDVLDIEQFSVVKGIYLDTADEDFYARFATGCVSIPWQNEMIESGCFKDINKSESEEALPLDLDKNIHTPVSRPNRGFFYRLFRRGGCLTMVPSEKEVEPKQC
PRKCQ, sequence (Q04759 whole entry): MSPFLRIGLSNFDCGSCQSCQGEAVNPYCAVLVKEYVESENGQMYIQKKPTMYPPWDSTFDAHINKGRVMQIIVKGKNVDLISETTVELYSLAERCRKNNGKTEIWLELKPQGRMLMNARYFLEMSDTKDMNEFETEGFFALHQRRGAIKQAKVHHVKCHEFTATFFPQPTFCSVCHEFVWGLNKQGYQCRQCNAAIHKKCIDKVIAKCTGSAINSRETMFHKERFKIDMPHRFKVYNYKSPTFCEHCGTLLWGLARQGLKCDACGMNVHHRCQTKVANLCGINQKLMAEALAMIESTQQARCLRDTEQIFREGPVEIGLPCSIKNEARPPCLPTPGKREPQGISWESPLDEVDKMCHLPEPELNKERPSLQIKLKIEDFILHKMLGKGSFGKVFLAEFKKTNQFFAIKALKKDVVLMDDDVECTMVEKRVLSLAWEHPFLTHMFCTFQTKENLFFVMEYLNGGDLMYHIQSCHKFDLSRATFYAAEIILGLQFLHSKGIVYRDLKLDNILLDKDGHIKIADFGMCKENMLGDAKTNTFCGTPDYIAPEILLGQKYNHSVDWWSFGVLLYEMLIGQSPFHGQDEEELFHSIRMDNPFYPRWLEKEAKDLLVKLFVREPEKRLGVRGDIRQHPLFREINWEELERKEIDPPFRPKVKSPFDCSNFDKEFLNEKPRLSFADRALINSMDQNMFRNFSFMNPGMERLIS

Compound: CC#CC(=O)N1CCC[C@H]1c1nc(-c2ccc(C(=O)Nc3ccccn3)cc2)c2c(N)nccn12 [Acalabrutinib]
- remaining binding at 0.3 µM [1, 9]: 89%
- remaining binding at 0.3 µM [2, 9]: 92%
- remaining binding at 0.3 µM [3, 9]: 88%
- remaining binding at 0.3 µM [4, 9]: 80%
- remaining binding at 0.3 µM [5, 9]: 79%
- remaining binding at 0.3 µM [6, 9]: 94%
- remaining binding at 0.3 µM [7, 9]: 84%
- remaining binding at 0.3 µM [8, 9]: 91%

Compound: C=CC(=O)N1CCC[C@@H](n2nc(-c3ccc(Oc4ccccc4)cc3)c3c(N)ncnc32)C1 [Ibrutinib]
- remaining binding at 0.3 µM [3, 10]: 65%
- remaining binding at 0.3 µM [4, 10]: 0.5%
- remaining binding at 0.3 µM [5, 10]: 86%
- remaining binding at 0.3 µM [6, 10]: 89%
- remaining binding at 0.3 µM [8, 10]: 47%

Compound: CC#CC(=O)N1CC[C@@H](n2c(=O)n(-c3ccc(Oc4ccccc4)cc3)c3c(N)ncnc32)C1 [Tirabrutinib]
- remaining binding at 0.3 µM [1, 11]: 74%
- remaining binding at 0.3 µM [2, 11]: 95%
- remaining binding at 0.3 µM [4, 11]: 39%
- remaining binding at 0.3 µM [5, 11]: 92%
- remaining binding at 0.3 µM [7, 11]: 93%
- remaining binding at 0.3 µM [8, 11]: 53%

Compound: C=CC(=O)N1CCC([C@@H]2CCNc3c(C(N)=O)c(-c4ccc(Oc5ccccc5)cc4)nn32)CC1 [Zanubrutinib]
- remaining binding at 0.3 µM [1, 12]: 85%
- remaining binding at 0.3 µM [2, 12]: 87%
- remaining binding at 0.3 µM [3, 12]: 93%
- remaining binding at 0.3 µM [5, 12]: 85%
- remaining binding at 0.3 µM [6, 12]: 91%
- remaining binding at 0.3 µM [7, 12]: 87%
- remaining binding at 0.3 µM [8, 12]: 94%

Reference: publication PMC10004634 (PLOS ONE, 2023)
